According to PubChem BioAssay AID1996:
Values after ≈ are worked out from the molar mass of the structure shown.

Settings: buffer; pH 7.4; 200.0 µM

Structure (SMILES)	solubility kinetic
CCCOc1cccc(C(=O)NCCNC(=O)c2cnccn2)c1	48 µg/mL (≈ 146 µM)
COc1ccccc1C(=O)N(C1=NC(C)CS1)c1ccc(Cl)cc1 (stereo not given)	8.1 µg/mL (≈ 22.4 µM)
Cc1c(-c2ccc(Cl)cc2)[n+](=O)c(-c2ccccc2)cn1[O-]	> 46.9 µg/mL
Cc1ccccc1S(=O)(=O)/N=C(/c1ccccc1)N(C)C	44.9 µg/mL (≈ 148 µM)
COc1ccc(NC(=O)C2CCCCC2)cc1S(=O)(=O)N1CCOCC1	51.6 µg/mL (≈ 135 µM)
COc1cccc(OCC(=O)Nc2ccncc2)c1	> 38.7 µg/mL
CC(NC(=O)COC(=O)c1cccnc1Cl)C12CC3CC(CC(C3)C1)C2 (stereo not given)	52.4 µg/mL (≈ 139 µM)
O=C(Nc1nc(-c2cccs2)c(C(=O)C(F)(F)F)s1)c1ccco1	3.8 µg/mL (≈ 10.2 µM)
Cc1cc(C)nc(NC(=O)CSc2ncccn2)n1	> 41.3 µg/mL
Cn1c(C2CCCCC2)nc2ccccc21	> 32.1 µg/mL
CN1CCN(CC#CCC(O)(c2ccccc2)c2ccccc2)CC1.Cl	> 55.6 µg/mL
CC(CN1CCCCC1)OC(=O)/C=C/c1ccccc1.Cl (stereo not given)	> 46.5 µg/mL
O=C1Nc2ccc(Br)cc2C1(O)c1ccc(F)cc1 (stereo not given)	> 48.3 µg/mL
O=C(Cc1ccccc1)Oc1coc(CSc2ncccn2)cc1=O	> 53.2 µg/mL
Cc1noc(-c2ccccc2)c1NC(=O)Nc1ccc(Cl)cc1	3.1 µg/mL (≈ 9.46 µM)
CCCn1cc(C(=O)OCC)c(=O)c2cc(F)c(F)cc21	34.9 µg/mL (≈ 118 µM)
O=C(O)CCN1C(=O)S/C(=C\c2cccnc2)C1=O	> 41.7 µg/mL
CC1(NC(=O)C2CCCCC2)CCS(=O)(=O)C1 (stereo not given)	35.1 µg/mL (≈ 135 µM)
CCOC(=O)CSc1nnc(-c2cccnc2)n1C	> 41.7 µg/mL
CC(=O)c1ccc(N2CCN(c3ncccn3)CC2)c([N+](=O)[O-])c1	39.2 µg/mL (≈ 120 µM)
CN(C)CCNC(=S)NC1CCCCC1	32.7 µg/mL (≈ 143 µM)
Fc1ccc2[nH]c3c(N4CCc5ccccc5C4)ncnc3c2c1	1.2 µg/mL (≈ 3.77 µM)
Cc1cccc(NC(=S)N(C)C)c1C	> 31.2 µg/mL
COC(=O)/C(C#N)=C/c1c(N2CCN(C)CC2)nc2ccccn2c1=O	> 53 µg/mL

Structure (SMILES)	solubility kinetic
Cn1c(SCC(=O)Nc2sccc2C(N)=O)nc2ccccc2c1=O	3.8 µg/mL (≈ 10.1 µM)
CCOc1ccc2nc(SCC(=O)NC3CC3)sc2c1	13.1 µg/mL (≈ 42.5 µM)
N#Cc1cc(Nc2c(N)nc[nH]c2=O)c([N+](=O)[O-])cc1C#N	> 44.6 µg/mL
CCCCn1c(O)c(C=NCc2ccc3c(c2)OCO3)c(=O)[nH]c1=O	6.8 µg/mL (≈ 19.7 µM)
CCOC(=O)c1cncc(O)c1	> 25.1 µg/mL
COc1cc(/C=C/C(=O)OCC(=O)NCCCc2ccccc2)ccc1O	52.9 µg/mL (≈ 143 µM)
CN(C)c1ccc(P(=O)(OC2CCCCC2)C(O)c2ccncc2)cc1 (stereo not given)	52.8 µg/mL (≈ 141 µM)
O=C(c1ccc(Cl)c(S(=O)(=O)N2CCc3ccccc32)c1)N1CCN(c2ccccc2O)CC1	11.3 µg/mL (≈ 22.7 µM)
CSc1nc2ncnc(N)c2[nH]1	> 27.2 µg/mL
CC(C)(C)NCC(O)COc1cccc2[nH]c(=O)[nH]c12.Cl (stereo not given)	> 47.4 µg/mL
COCCNc1c2c(nc3ccccc13)CCC2.Cl	> 41.8 µg/mL
CC(C(=O)Nc1cc(Cl)cc(Cl)c1)N1CCCC1 (stereo not given)	> 43.1 µg/mL
CCOc1ncccc1C(=O)OCC(=O)c1ccc(C)c(C)c1	17 µg/mL (≈ 54.3 µM)
N/C(=N\OC(=O)Cc1ccccc1)c1cccc(Br)c1	1.1 µg/mL (≈ 3.3 µM)
COc1ccc(OC)c(NC(=O)c2cccnc2)c1	> 38.7 µg/mL
COc1ccccc1N1C(=O)c2cccnc2C1=O	34.9 µg/mL (≈ 137 µM)
O=C(CC(=O)Nc1cccnc1)Nc1cccnc1	> 38.4 µg/mL
CCS(=O)(=O)Nc1cccc(-c2cn3c(n2)SCC3)c1	> 46.4 µg/mL
CCOC(=O)Cn1cc(Cl)c(=O)c(Cl)c1	35.8 µg/mL (≈ 143 µM)
O=C(Nc1cccnc1)c1cc2cc(Br)ccc2o1	0.9 µg/mL (≈ 2.84 µM)
Cl.OC(CN1CCNCC1)Cn1c2ccccc2c2ccccc21 (stereo not given)	54.4 µg/mL
NC(=O)CSc1ccc(S(=O)(=O)N2CCCCC2)cn1	44.6 µg/mL (≈ 141 µM)
O=C(NCCO)C(=O)Nc1cc2c3c(c1)CCC(=O)N3CCC2	> 47.6 µg/mL
COc1ccccc1C1NC(=O)c2ccccc2O1 (stereo not given)	> 38.3 µg/mL

Structure (SMILES)	solubility kinetic
Nc1ccc2nc(CCCCCCc3nc4ccc(N)cc4[nH]3)[nH]c2c1	> 52.3 µg/mL
CCOc1ccc(C(C)=O)cc1CN1C(=O)C(=O)N(CC)C1=O	41.5 µg/mL (≈ 130 µM)
Clc1nssc1=Nc1ccc(Br)cc1	1.4 µg/mL (≈ 4.55 µM)
CN(C)C(=O)CSc1nc2ccc(N3C(=O)c4ccccc4C3=O)cc2s1	3.1 µg/mL (≈ 7.8 µM)
Cc1csc(NC(=O)C2CC(=O)N(Cc3ccco3)C2)n1 (stereo not given)	> 45.8 µg/mL
CC(C(=O)Nc1ccc(Cl)cc1)N(C)Cc1cccs1 (stereo not given)	13.4 µg/mL (≈ 43.4 µM)
O=C(C1CCCN(S(=O)(=O)c2ccccc2)C1)N1CCCCC1 (stereo not given)	50.4 µg/mL (≈ 150 µM)
COc1ccc(N2C(=O)c3ccccc3C2=O)cc1	10.7 µg/mL (≈ 42.2 µM)
COc1ccccc1NC(=O)c1ccc([N+](=O)[O-])o1	36.8 µg/mL (≈ 140 µM)
CCN(CC)c1ccc(NC(=S)Nc2ccc(F)cc2)cc1	9 µg/mL (≈ 28.4 µM)
Cc1ccc(Nc2nc(N)c3ccccc3n2)cc1Cl.Cl	22.1 µg/mL
O=C(/C=C/c1ccc(Cl)cc1)Nc1ccc(Br)cn1	< 0.4 µg/mL
Cc1ccc(C)c(N(CC(=O)N2CCCC2)S(C)(=O)=O)c1	35.8 µg/mL (≈ 115 µM)
O=C(Nc1ncccn1)c1cccc(F)c1	> 32.6 µg/mL
CCS(=O)(=O)N1CCC(c2nc3ccccc3[nH]2)CC1	40 µg/mL (≈ 136 µM)
CCOC(=O)c1ccc(NC(=O)Nc2ncccc2C)cc1	0.6 µg/mL (≈ 2 µM)
CC(=O)Nc1ccc(NC(=O)c2ccc(COc3ccccc3)cc2)cc1	0.6 µg/mL (≈ 1.66 µM)
O=C(Cc1ccc(Br)cc1)NCCc1ccc(F)cc1	14.9 µg/mL (≈ 44.3 µM)
c1ccc(CCn2cnc3ccccc32)cc1	29.3 µg/mL (≈ 132 µM)
Cn1c(=O)c2c(ncn2CC(=O)Nc2cc(S(=O)(=O)N3CCCCC3)ccc2O)n(C)c1=O	> 71.5 µg/mL
Cc1cc(Sc2nc(N(C)C)nc(N(C)C)n2)nc(Cl)n1	1 µg/mL (≈ 3.07 µM)
O=C(NCc1ccccc1Cl)c1cc(=O)[nH]c2ccccc12	7.4 µg/mL (≈ 23.7 µM)
COc1ccc(OC)c(-c2cc(C(=O)N3CCOCC3)no2)c1	> 47.7 µg/mL
O=C1CSC(=Nc2cccc(Cl)c2Cl)N1Cc1cccnc1	30.8 µg/mL (≈ 87.4 µM)

Structure (SMILES)	solubility kinetic
O=C(CC(=O)NCCc1ccccc1)NCCc1ccccc1	> 46.6 µg/mL
COc1ccc(C)cc1NC(=O)CN1C(=O)C2CC=CCC2C1=O (stereo not given)	> 49.3 µg/mL
CCC(=O)Nc1cc(C(=O)O)ccc1Sc1ccc(Cl)cc1	> 50.4 µg/mL
COCC(C)n1c(C)cc(C(=O)COC(=O)c2nn(C)c(=O)c3ccccc23)c1C (stereo not given)	> 61.7 µg/mL
CCOC(=O)C1CCCN(S(=O)(=O)c2ccc(NC(C)=O)cc2)C1 (stereo not given)	> 53.2 µg/mL
O=C(CN1C(=O)C2(OCCO2)c2cc(Br)ccc21)NO	46.7 µg/mL (≈ 136 µM)
CCCC(C)C(=O)Nc1ccc(S(=O)(=O)N2CCCC2)cc1 (stereo not given)	> 48.7 µg/mL
O=C(CCNC(=O)c1ccc([N+](=O)[O-])cc1)Nc1ccc(F)cc1	21.8 µg/mL (≈ 65.8 µM)
O=C(c1cccc([N+](=O)[O-])c1)N1CC2C3C=CC(C3)C2C1 (stereo not given)	> 42.6 µg/mL
Cc1ccsc1C(=O)NCCc1ccc(S(N)(=O)=O)cc1	32.8 µg/mL (≈ 101 µM)
CN(C(=O)CSc1ncn[nH]1)C1(C#N)CCCCC1	> 41.9 µg/mL
c1csc(-c2nc(N3CCCCC3)no2)c1	3.8 µg/mL (≈ 16.1 µM)
CC(NC(=O)COC(=O)CCC(=O)c1ccc(F)cc1)c1ccccc1 (stereo not given)	> 53.6 µg/mL
O=C(OCC(=O)N(CCc1ccccc1)Cc1ccccc1)c1cccc(O)c1	2.6 µg/mL (≈ 6.68 µM)
O=CN1CCN(CC(O)Cn2c3ccccc3c3ccccc32)CC1 (stereo not given)	43.3 µg/mL (≈ 128 µM)
COc1ccccc1OCCn1c(SCC(=O)O)nc2ccccc21	> 53.8 µg/mL
CN(C)C(CNC(=O)c1ccc([N+](=O)[O-])cc1Cl)c1ccco1 (stereo not given)	> 50.7 µg/mL
COc1ccccc1CNc1ncccn1.O=C(O)C(=O)O	34.4 µg/mL
COc1ccc(OCCC(=O)Nc2ccccc2)cc1	> 40.7 µg/mL
O=C(CCN1C(=O)c2cccc([N+](=O)[O-])c2C1=O)NC1CCCCCC1	> 53.9 µg/mL
O=C(Nc1cc(S(=O)(=O)N2CCOCC2)ccc1O)c1ccc(S(=O)(=O)N2CCCCC2)cc1	4.8 µg/mL (≈ 9.42 µM)
COc1ccc2cc(Br)ccc2c1CC(=O)N(C)C	21.1 µg/mL (≈ 65.5 µM)
CC(C)CNC1CCS(=O)(=O)C1.Cl (stereo not given)	> 34.2 µg/mL
S=C(NCCCN1CCOCC1)N1CCOCC1	> 41 µg/mL

Structure (SMILES)	solubility kinetic
O=C(Nc1cccc(F)c1)Nc1cnccn1	6.1 µg/mL (≈ 26.3 µM)
Cc1ccc(-n2c(C)cc(C(=O)CN3CCOCC3)c2C)cc1C	> 49 µg/mL
Fc1ccc(-c2csc(-c3ccncc3)n2)cc1	1.3 µg/mL (≈ 5.07 µM)
Cc1noc(C)c1COC(=O)/C=C/c1ccccc1Cl	6.8 µg/mL (≈ 23.3 µM)
N#Cc1c(-c2ccncc2)cc(-c2ccc(F)cc2)nc1N	0.5 µg/mL (≈ 1.72 µM)
O=[N+]([O-])c1ccc2c(c1)C(c1ccccc1)=NCCN2	16.8 µg/mL (≈ 62.9 µM)
O=C(NCc1cccc(Cl)c1)c1ccc2ccccc2n1	3.6 µg/mL (≈ 12.1 µM)
COc1cc(=O)[nH]c(SC(C)C(=O)Nc2cccc3ccccc23)n1 (stereo not given)	0.9 µg/mL (≈ 2.53 µM)
CN(C)c1cccc(C(=O)Nc2nc3ccccc3[nH]2)c1	12.1 µg/mL (≈ 43.2 µM)
CC12CCC(=O)N1C(C(=O)NCCc1ccc(F)cc1)CS2 (stereo not given)	46.3 µg/mL (≈ 144 µM)
Cc1[nH]ccc(=O)c1Cc1c(Cl)cccc1Cl	> 40.2 µg/mL
Cc1cccc(C)c1NC(=O)c1c[nH]c2ccccc12	> 39.6 µg/mL
CCOc1ccc(S(=O)(=O)c2c[nH]c3ccccc3c2=O)cc1	1.7 µg/mL (≈ 5.16 µM)
CCOc1ccc(CN(C)CC(=O)Nc2cccc(C)c2)cc1OC	> 51.4 µg/mL
Cc1ccc(CNC(=O)c2cccnc2)cc1	> 33.9 µg/mL
Cc1cccc(CCNCc2cc3cc(C)cc(C)c3[nH]c2=O)c1	42.5 µg/mL (≈ 133 µM)
O=[N+]([O-])c1cccc(S(=O)(=O)NC2CC3CCC2C3)c1 (stereo not given)	42.8 µg/mL (≈ 144 µM)
CN(Cc1ccccc1)C1CCNCC1.Cl	> 41.6 µg/mL
COc1ccc(C)c2sc(=NC(=O)c3cccc(N4C(=O)CCC4=O)c3)n(C)c12	< 0.3 µg/mL
N#C/C=C/N1CCC(Cc2ccccc2)CC1	29.6 µg/mL (≈ 131 µM)
Cc1ccc(OCCSc2nc3ccccc3n2CC(=O)O)cc1	> 51.4 µg/mL
CN(Cc1ccc(F)cc1)C(=O)CN1C(=O)c2ccccc2S1(=O)=O	49 µg/mL (≈ 135 µM)
Cc1ccccc1-n1c(=S)[nH]c2nc3c(cc2c1=O)COC(C)(C)C3	30.7 µg/mL (≈ 86.9 µM)
COc1cccc(OC)c1C(=O)NC(=O)Nc1c(C)cccc1C	5.2 µg/mL (≈ 15.8 µM)
